In PMC11249646, “Small-Molecule Disruptors of the Interaction between Calcium- and Integrin-Binding Protein 1 and Integrin αIIbβ3 as Novel Antiplatelet Agents” (ACS Pharmacology & Translational Science, 2024):
pIC50: −log10 of the molar value. Like-named read-outs stand apart in the source and are kept apart here.

Legend:
Format in all cases: binding
[1] = molecular target: T1, GST-CIB1 : F-scrambled peptide (Homo sapiens, UniProt Q99828); test: FP scrambled-peptide counter screen, 384-well format; conditions: F-scrambled peptide; for 384-well COUNTERSCREEN Confirm?: *: Curve in opposite direction; for pIC50: read-out: 384-well COUNTERSCREEN IC50
T1 construct: made in house; host or cells: BL-21 plus RIL cells (E. coli)
T1 sequence (Q99828 1-191): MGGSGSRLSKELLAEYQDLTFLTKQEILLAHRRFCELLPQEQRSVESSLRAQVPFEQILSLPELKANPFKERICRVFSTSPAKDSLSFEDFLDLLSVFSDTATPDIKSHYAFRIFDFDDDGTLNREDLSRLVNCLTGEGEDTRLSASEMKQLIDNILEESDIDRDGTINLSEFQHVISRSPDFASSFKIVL

[2] = molecular target: T1, GST-CIB1 : F-scrambled peptide; test: FP scrambled-peptide counter screen, 1536-well format; conditions: for COUNTERSCREEN Confirm?: YES/NO call; for COUNTERSCREEN Curve Class: qHTS curve class; for pIC50: read-out: COUNTERSCREEN IC50
[3] = molecular target: T2, CIB1 and αIIb interaction (CIB1-GST : F-αIIb peptide) (Homo sapiens, UniProt Q99828); test: FP assay, 1536-well qHTS format (primary and confirmatory screen); conditions: for CONFIRMATORY SCREEN Confirm?: YES/NO call; for CONFIRMATORY SCREEN Curve Class: qHTS curve class; for CONFIRMATORY SCREEN Curve Class / Curve Class: negative sign = inhibitory curve
T2 construct: made in house; host or cells: BL-21 plus RIL cells (E. coli)
T2 sequence (Q99828 1-191): T1 sequence (Q99828 1-191)

[4] = molecular target: T3, CIB1 and αIIb interaction (GST-CIB1 : F-αIIb peptide) (Homo sapiens, UniProt Q99828); test: FP assay, 384-well format (screen); design: 384-well SCREEN Efficacy (%): concentration or dose not given beside the values; conditions: for 384-well SCREEN Efficacy (%) / 384-well SCREEN Confirm? / pIC50: F-αIIb peptide; for 384-well SCREEN Confirm?: YES/NO; for pIC50: read-out: 384-well SCREEN IC50
T3 construct: made in house; host or cells: BL-21 plus RIL cells (E. coli)
T3 sequence (Q99828 1-191): T1 sequence (Q99828 1-191)

[5] = scrambled-peptide counterscreen
[6] = confirmatory screen, read-out: CONFIRMATORY SCREEN IC50
[7] = qHTS primary screen hits, Table S2, negative = inhibition
[8] = qHTS primary screen hits, Table S2
[9] = qHTS primary screen hits, Table S2, read-out: IC50
[10] = confirmatory screen, negative = inhibition
[11] = qHTS FP screen hits, Table S2, negative = inhibition
[12] = qHTS FP screen hits, Table S2, one class per curve where COUNT > 1
[13] = qHTS FP screen hits, Table S2, read-out: IC50
[14] = qHTS primary screen hits, Table S2, several classes where COUNT > 1

SMILES: O=C(Nc1nc(-c2ccccc2)cs1)c1ccncc1NS(=O)(=O)c1ccc2ccccc2c1.O=C(O)C(F)(F)F [NCGC00345031-01]
- 384-well COUNTERSCREEN Efficacy (%) [1]: 81%
- 384-well COUNTERSCREEN Confirm? [1]: YES*
- pIC50 [1]: 4.55
- COUNTERSCREEN Efficacy (%) [2]: 0%
- COUNTERSCREEN Confirm? [2, 5]: YES
- COUNTERSCREEN Curve Class [2, 5]: 3
- CONFIRMATORY SCREEN Efficacy (%) [3]: -84%
- CONFIRMATORY SCREEN Confirm? ([3]; confirmatory screen): YES
- CONFIRMATORY SCREEN Curve Class ([3]; confirmatory screen): -1.4
- pIC50 [3, 6]: 4.70
- Efficacy (%) [3, 7]: -53%
- Curve Class [3, 8]: -2.2
- pIC50 [3, 9]: 4.40
- 384-well SCREEN Efficacy (%) [4]: 47%
- 384-well SCREEN Confirm? [4]: YES

SMILES: Cc1cc(F)ccc1S(=O)(=O)Nc1cnccc1C(=O)Nc1nc(-c2ccccc2)cs1 [NCGC00345106-03]
- 384-well COUNTERSCREEN Efficacy (%) [1]: 38%
- 384-well COUNTERSCREEN Confirm? [1]: YES
- pIC50 [1]: < 3.92
- COUNTERSCREEN Efficacy (%) [2, 5]: 28%
- COUNTERSCREEN Confirm? [2, 5]: YES
- COUNTERSCREEN Curve Class [2, 5]: 4
- CONFIRMATORY SCREEN Confirm? ([3]; confirmatory screen): YES
- CONFIRMATORY SCREEN Curve Class ([3]; confirmatory screen): -2.1
- CONFIRMATORY SCREEN Efficacy (%) [3, 10]: -123%
- pIC50 [3, 6]: 4.55
- Efficacy (%) [3, 11]: -51%
- Curve Class [3, 12]: -2.2
- pIC50 [3, 13]: 4.30
- 384-well SCREEN Efficacy (%) [4]: 46%
- 384-well SCREEN Confirm? [4]: YES
- pIC50 [4]: 4.55

SMILES: O=C(O)C1=NC(C(=O)O)CC(/C=C/N2c3cc(O)c(OC4OC(CO)C(O)C(O)C4O)cc3CC2C(=O)O)=C1 (centres unmarked) [NCGC00346734-01]
- 384-well COUNTERSCREEN Efficacy (%) [1]: 10%
- 384-well COUNTERSCREEN Confirm? [1]: YES
- pIC50 [1]: < 3.92
- COUNTERSCREEN Efficacy (%) [2, 5]: -18%
- COUNTERSCREEN Confirm? [2, 5]: YES
- COUNTERSCREEN Curve Class [2, 5]: 4
- CONFIRMATORY SCREEN Confirm? ([3]; confirmatory screen): YES
- CONFIRMATORY SCREEN Curve Class ([3]; confirmatory screen): -2.2
- CONFIRMATORY SCREEN Efficacy (%) [3, 10]: -66%
- pIC50 [3, 6]: 4.30
- Efficacy (%) [3, 7]: -25%
- Curve Class [3, 8]: -2.4
- pIC50 [3, 9]: 4.62
- 384-well SCREEN Efficacy (%) [4]: 43%
- 384-well SCREEN Confirm? [4]: YES
- pIC50 [4]: 4.40

SMILES: CC(=O)N1CCN(c2ccc(OCc3nn(C)c(C)c3-c3cccc4c(CCCOc5cccc6ccccc56)c(C(=O)O)n(Cc5cccnc5)c34)cc2)CC1 [NCGC00347174-02]
- 384-well COUNTERSCREEN Efficacy (%) [1]: 15%
- 384-well COUNTERSCREEN Confirm? [1]: YES
- pIC50 [1]: < 3.92
- COUNTERSCREEN Efficacy (%) [2, 5]: -33%
- COUNTERSCREEN Confirm? [2, 5]: YES
- COUNTERSCREEN Curve Class [2, 5]: 4
- CONFIRMATORY SCREEN Confirm? ([3]; confirmatory screen): YES
- CONFIRMATORY SCREEN Curve Class ([3]; confirmatory screen): -2.2
- CONFIRMATORY SCREEN Efficacy (%) [3, 10]: -77%
- pIC50 [3, 6]: 4.65
- Efficacy (%) [3, 7]: -31%
- Curve Class [3, 14]: -2.4
- pIC50 [3, 9]: 4.47
- 384-well SCREEN Efficacy (%) [4]: 52%
- 384-well SCREEN Confirm? [4]: YES
- pIC50 [4]: 4.55

SMILES: Cc1c(C)n(Cc2ccc(-c3ccccc3C(=O)O)cc2)c2ccc(C(=O)N[C@@H](C)c3ccc([N+](=O)[O-])cc3)cc12 [NCGC00347955-04]
- 384-well COUNTERSCREEN Efficacy (%) [1]: 32%
- 384-well COUNTERSCREEN Confirm? [1]: YES
- pIC50 [1]: < 3.92
- COUNTERSCREEN Efficacy (%) [2, 5]: 95%
- COUNTERSCREEN Confirm? [2, 5]: YES
- COUNTERSCREEN Curve Class [2, 5]: 3
- pIC50 [2, 5]: 4.05
- CONFIRMATORY SCREEN Confirm? ([3]; confirmatory screen): YES
- CONFIRMATORY SCREEN Curve Class ([3]; confirmatory screen): -1.2
- CONFIRMATORY SCREEN Efficacy (%) [3, 10]: -52%
- pIC50 [3, 6]: 4.65
- 384-well SCREEN Efficacy (%) [4]: 56%
- 384-well SCREEN Confirm? [4]: YES
- pIC50 [4]: 4.90

SMILES: CCc1nnc(NS(=O)(=O)c2ccc(NC(=S)NC(=O)/C=C/c3ccc(F)cc3)cc2)s1 [NCGC00351476-01]
- 384-well COUNTERSCREEN Efficacy (%) [1]: -30%
- pIC50 [1]: 5.30
- COUNTERSCREEN Efficacy (%) [2, 5]: 57%
- COUNTERSCREEN Confirm? [2, 5]: YES
- COUNTERSCREEN Curve Class [2, 5]: 3
- pIC50 [2, 5]: 4.15
- CONFIRMATORY SCREEN Confirm? ([3]; confirmatory screen): YES
- CONFIRMATORY SCREEN Curve Class ([3]; confirmatory screen): -1.2
- CONFIRMATORY SCREEN Efficacy (%) [3, 10]: -36%
- pIC50 [3, 6]: 5.05
- Efficacy (%) [3, 11]: -29%
- Curve Class [3, 12]: -1.2
- pIC50 [3, 13]: 5.10
- 384-well SCREEN Efficacy (%) [4]: 30%
- 384-well SCREEN Confirm? [4]: YES
- pIC50 [4]: 5.35

SMILES: NS(=O)(=O)c1ccc(Cc2c(-c3cccc(-c4ccccc4F)c3)nn(-c3nc(C(=O)O)cs3)c2O)cc1.O=C(O)C(F)(F)F [NCGC00356464-01]
- 384-well COUNTERSCREEN Efficacy (%) [1]: 34%
- 384-well COUNTERSCREEN Confirm? [1]: Inconclusive
- pIC50 [1]: 5.00
- COUNTERSCREEN Efficacy (%) [2, 5]: -32%
- COUNTERSCREEN Confirm? [2, 5]: YES
- COUNTERSCREEN Curve Class [2, 5]: 4
- CONFIRMATORY SCREEN Confirm? ([3]; confirmatory screen): YES
- CONFIRMATORY SCREEN Curve Class ([3]; confirmatory screen): -1.2
- CONFIRMATORY SCREEN Efficacy (%) [3, 10]: -74%
- pIC50 [3, 6]: 4.40
- Efficacy (%) [3, 7]: -63%
- Curve Class [3, 14]: -2.2
- pIC50 [3, 9]: 4.10
- 384-well SCREEN Efficacy (%) [4]: 57%
- 384-well SCREEN Confirm? [4]: YES
- pIC50 [4]: 4.65
- Confirm and Selective? ([4]; selective toward αIIb: negative curve class and/or IC50 ratio of >3-fold and/or >2-fold efficacy vs scrambled peptide): Inconclusive
